pIC50: −log10 of the molar value.
Legend:
[1] = target: T1, Human CD73 (amino acid residues 27-549) (Homo sapiens, UniProt P21589); assay: CD73 enzymatic assay (luciferase-based indirect assay, CellTiter-Glo); format: biochemical; details: 0.4 nM CD73, 150 μM AMP, 1 hour at room temperature
T1 construct: Human CD73 (amino acid residues 27-549); His tag (N); made in house; host or cells: E. coli
T1 sequence (P21589 27-549): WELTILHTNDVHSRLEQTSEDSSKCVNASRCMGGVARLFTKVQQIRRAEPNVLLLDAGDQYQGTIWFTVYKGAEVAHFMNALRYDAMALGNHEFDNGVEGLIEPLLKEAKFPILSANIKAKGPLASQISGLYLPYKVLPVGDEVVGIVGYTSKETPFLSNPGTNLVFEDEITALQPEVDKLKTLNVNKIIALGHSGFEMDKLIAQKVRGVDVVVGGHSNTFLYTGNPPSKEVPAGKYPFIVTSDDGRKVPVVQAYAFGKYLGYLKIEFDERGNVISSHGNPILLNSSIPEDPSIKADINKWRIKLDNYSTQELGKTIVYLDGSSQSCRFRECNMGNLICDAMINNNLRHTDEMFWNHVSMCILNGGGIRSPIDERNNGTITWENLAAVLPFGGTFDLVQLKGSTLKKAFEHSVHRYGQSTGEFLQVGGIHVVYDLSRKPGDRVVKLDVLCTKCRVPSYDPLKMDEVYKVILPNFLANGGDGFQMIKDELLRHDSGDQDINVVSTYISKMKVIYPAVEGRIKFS
Method in brief: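 Residual AMP inhibits luciferase, so luminescence reports CD73 turnover; read with CellTiter-Glo 2.0 plus 1 μM final ATP, 30 min. Reaction used 0.4 nM N-His CD73 (27-549, E. coli), 150 μM AMP, HEPES pH 7.4 with Tween 20, 1 h at room temperature. IC50 fitted by nonlinear regression.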

[2] = target: T2, human CD73 (Homo sapiens, UniProt P21589); assay: Inhibitor activity against CD73 in cell based assay (CD73 expressing CHO-K1 cells); details: CHO-K1 cells expressing human CD73, 150 μM AMP, 4 hours of incubation; read-out: CHO-K1 CELL VARIANT: CD73 IC50
T2 construct: expressed in transfected cells
T2 sequence (P21589 27-549): T1 sequence (P21589 27-549)
Method in brief: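 Residual supernatant AMP was quantified via CellTiter-Glo luminescence (1 μM ATP added, 30 min, room temperature) after a 4 h exposure of human CD73-expressing CHO-K1 cells to 150 μM AMP plus compound, top final 10 μM, 8 points. IC50 came from nonlinear regression of percent inhibition.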

| Structure (SMILES) | pIC50 [1] | pIC50 [2] |
| --- | --- | --- |
| O=C(N[C@H]1CC[C@H](C(=O)NC2CC2)CC1)O[C@@H]1CCN(c2cn[nH]c(=O)c2Cl)C1 [P-0192, (R)-1-(5-chloro-6-oxo-1,6-dihydropyridazin-4-yl)pyrrolidin-3-yl ((1r,4R)-4-(cyclopropylcarbamoyl)cyclohexyl)carbamate] | 5.00 to 9.00 | 5.00 to 9.00 |
| CCN(C)C(=O)[C@H]1CC[C@H](NC(=O)O[C@@H]2CCN(c3cn[nH]c(=O)c3Cl)C2)CC1 [P-0193, (R)-1-(5-chloro-6-oxo-1,6-dihydropyridazin-4-yl)pyrrolidin-3-yl ((1r,4R)-4-(ethyl(methyl)carbamoyl)cyclohexyl)carbamate] | 5.00 to 9.00 | 5.00 to 9.00 |
| O=C(N[C@H]1CC[C@H](C(=O)Nc2ccccc2)CC1)O[C@@H]1CCN(c2cn[nH]c(=O)c2Cl)C1 [P-0194, (R)-1-(5-chloro-6-oxo-1,6-dihydropyridazin-4-yl)pyrrolidin-3-yl ((1r,4R)-4-(phenylcarbamoyl)cyclohexyl) carbamate] | 5.00 to 9.00 | 5.00 to 9.00 |
| O=C(N[C@H]1CC[C@@H](NC(=O)c2ccc(F)cc2)CC1)O[C@@H]1CCN(c2cn[nH]c(=O)c2Cl)C1 [P-0195, (R)-1-(5-chloro-6-oxo-1,6-dihydropyridazin-4-yl)pyrrolidin-3-yl ((1s,4S)-4-(4-fluorobenzamido)cyclohexyl) carbamate] | 5.00 to 9.00 | 5.00 to 9.00 |
| CC(=O)N[C@H]1CC[C@@H](NC(=O)O[C@@H]2CCN(c3cn[nH]c(=O)c3Cl)C2)CC1 [P-0196, (R)-1-(5-chloro-6-oxo-1,6-dihydropyridazin-4-yl)pyrrolidin-3-yl ((1s,4S)-4-acetamidocyclohexyl)carbamate] | 5.00 to 9.00 | 5.00 to 9.00 |
| O=C(NC1CCCCC1)N[C@H]1CC[C@@H](NC(=O)O[C@@H]2CCN(c3cn[nH]c(=O)c3Cl)C2)CC1 [P-0197, (R)-1-(5-chloro-6-oxo-1,6-dihydropyridazin-4-yl)pyrrolidin-3-yl ((1s,4S)-4-(3-cyclohexylureido)cyclohexyl) carbamate] | 5.00 to 9.00 | 5.00 to 9.00 |
| O=C(NC1CC2(C1)CN(C(=O)Nc1ccc(F)cc1)C2)O[C@@H]1CCN(c2cn[nH]c(=O)c2Cl)C1 [P-0198, (R)-1-(5-chloro-6-oxo-1,6-dihydropyridazin-4-yl)pyrrolidin-3-yl (2-((4-fluorophenyl)carbamoyl)-2-azaspiro[3.3]heptan-6-yl)carbamate] | 5.00 to 9.00 | 4.00 to 5.00 |
| CCCNC(=O)[C@H]1C[C@H](NC(=O)O[C@@H]2CCN(c3cn[nH]c(=O)c3Cl)C2)C1 [P-0199, (R)-1-(5-chloro-6-oxo-1,6-dihydropyridazin-4-yl)pyrrolidin-3-yl ((1r,3R)-3-(propylcarbamoyl)cyclobutyl) carbamate] | 5.00 to 9.00 | 4.00 to 5.00 |
| O=C(N[C@H]1C[C@H](C(=O)Nc2ccccc2)C1)O[C@@H]1CCN(c2cn[nH]c(=O)c2Cl)C1 [P-0200, (R)-1-(5-chloro-6-oxo-1,6-dihydropyridazin-4-yl)pyrrolidin-3-yl ((1r,3R)-3-(phenylcarbamoyl)cyclobutyl) carbamate] | 5.00 to 9.00 | 5.00 to 9.00 |
| Cn1ncc(N2CC[C@@H](OC(=O)N[C@H]3CC[C@H](NS(=O)(=O)c4ccccc4F)CC3)C2)c(Cl)c1=O [P-0201, (R)-1-(5-chloro-1-methyl-6-oxo-1,6-dihydropyridazin-4-yl)pyrrolidin-3-yl ((1r,4R)-4-((2-fluorophenyl)sulfonamido)cyclohexyl)carbamate] | 5.00 to 9.00 | 5.00 to 9.00 |
| Cn1ncc(N2CC[C@@H](OC(=O)NC3CCC(F)(F)CC3)C2)c(Cl)c1=O [P-0202, (R)-1-(5-chloro-1-methyl-6-oxo-1,6-dihydropyridazin-4-yl)pyrrolidin-3-yl (4,4-difluorocyclohexyl)carbamate] | 5.00 to 9.00 | 5.00 to 9.00 |
| CC(C)(C)C1CCC(NC(=O)O[C@@H]2CCN(c3cn[nH]c(=O)c3Cl)C2)CC1 (stereo partly drawn) [P-0203, (R)-1-(5-chloro-6-oxo-1,6-dihydropyridazin-4-yl)pyrrolidin-3-yl (4-(tert-butyl)cyclohexyl)carbamate] | 5.00 to 9.00 | 5.00 to 9.00 |
| O=C(NC1CC2CCC1C2)O[C@@H]1CCN(c2cn[nH]c(=O)c2Cl)C1 (stereo partly drawn) [P-0204, (R)-1-(5-chloro-6-oxo-1,6-dihydropyridazin-4-yl)pyrrolidin-3-yl bicyclo[2.2.1]heptan-2-ylcarbamate] | 5.00 to 9.00 | 5.00 to 9.00 |
| O=C(NC1CCCCCC1)O[C@@H]1CCN(c2cn[nH]c(=O)c2Cl)C1 [P-0205, (R)-1-(5-chloro-6-oxo-1,6-dihydropyridazin-4-yl)pyrrolidin-3-yl cycloheptylcarbamate] | 5.00 to 9.00 | 5.00 to 9.00 |
| O=C(NC1Cc2ccccc2C1)O[C@@H]1CCN(c2cn[nH]c(=O)c2Cl)C1 [P-0206, (R)-1-(5-chloro-6-oxo-1,6-dihydropyridazin-4-yl)pyrrolidin-3-yl (2,3-dihydro-1H-inden-2-yl)carbamate] | 5.00 to 9.00 | 5.00 to 9.00 |
| O=C(NC1CCc2[nH]ncc2C1)O[C@@H]1CCN(c2cn[nH]c(=O)c2Cl)C1 (stereo partly drawn) [P-0207, (R)-1-(5-chloro-6-oxo-1,6-dihydropyridazin-4-yl)pyrrolidin-3-yl (4,5,6,7-tetrahydro-1H-indazol-5-yl)carbamate] | 5.00 to 9.00 | 5.00 to 9.00 |
| CN1CC(NC(=O)O[C@@H]2CCN(c3cn[nH]c(=O)c3Cl)C2)CC1=O (stereo partly drawn) [P-0208, (R)-1-(5-chloro-6-oxo-1,6-dihydropyridazin-4-yl)pyrrolidin-3-yl (1-methyl-5-oxopyrrolidin-3-yl)carbamate] | 5.00 to 9.00 | 5.00 to 9.00 |
| CCCN1CC(NC(=O)O[C@@H]2CCN(c3cn[nH]c(=O)c3Cl)C2)CC1=O (stereo partly drawn) [P-0209, (R)-1-(5-chloro-6-oxo-1,6-dihydropyridazin-4-yl)pyrrolidin-3-yl (5-oxo-1-propylpyrrolidin-3-yl)carbamate] | 5.00 to 9.00 | 5.00 to 9.00 |
| Cn1ncc(N2CC[C@@H](OC(=O)N[C@H]3CC[C@@H](C)CC3)C2)c(Cl)c1=O [P-0210, (R)-1-(5-chloro-1-methyl-6-oxo-1,6-dihydropyridazin-4-yl)pyrrolidin-3-yl ((1s,4S)-4-methylcyclohexyl)carbamate] | 5.00 to 9.00 | 5.00 to 9.00 |
| Cn1ncc(N2CC[C@@H](OC(=O)N[C@H]3CC[C@@H](NC(=O)c4ccccc4)CC3)C2)c(Cl)c1=O [P-0211, (R)-1-(5-chloro-1-methyl-6-oxo-1,6-dihydropyridazin-4-yl)pyrrolidin-3-yl ((1s,4S)-4-benzamidocyclohexyl) carbamate] | 5.00 to 9.00 | 5.00 to 9.00 |
| O=C(NC1CC2(C1)CN(S(=O)(=O)c1ccc(F)cc1)C2)O[C@@H]1CCN(c2cn[nH]c(=O)c2Cl)C1 [P-0212, (R)-1-(5-chloro-6-oxo-1,6-dihydropyridazin-4-yl)pyrrolidin-3-yl (2-((4-fluorophenyl)sulfonyl)-2-azaspiro[3.3]heptan-6-yl)carbamate] | 5.00 to 9.00 | 5.00 to 9.00 |
| O=CNC1CC2(C1)CC(NC(=O)O[C@@H]1CCN(c3cn[nH]c(=O)c3Cl)C1)C2 (stereo partly drawn) [P-0213, (R)-1-(5-chloro-6-oxo-1,6-dihydropyridazin-4-yl)pyrrolidin-3-yl (6-formamidospiro[3.3]heptan-2-yl)carbamate] | 5.00 to 9.00 | 5.00 to 9.00 |
